Target: T1, BRAF V600E (Homo sapiens, UniProt P15056, V600E)
T1 construct: endogenous C-terminal HiBiT fusion tag on BRAF V600E allele; endogenous in cells; host or cells: A375 clone 1F10 (CRISPR-Cas9 knock-in of the HiBiT tag; parental A375 from ATCC)
Experiment: BRAF HiBiT degradation assay, C-terminal HiBiT-tagged BRAF V600E A375 cells (clone 1F10), Nano-Glo HiBiT Lytic assay
Type: cell-based
Conditions: for Dmax: A-375
In short: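 A375 cells (clone 1F10, endogenous C-terminal HiBiT on BRAF V600E) were seeded at 10,000 cells/well, grown 24 h, then dosed in duplicate with an 11-point series from 1 μM to 0.01 nM (0.2% DMSO). Nano-Glo HiBiT lytic luminescence was normalised to DMSO and wildtype-A375 background; DC50 was read at 50% protein remaining, alongside observed Dmax.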

[1] = A375 (BRAF V600E), DC50 at 50%: fitted conc. at Y=50
[2] = A375 (BRAF V600E), percentage protein degraded at maximal compound effect relative to DMSO

T1 sequence (P15056 whole entry V600E, the tested form may be a part): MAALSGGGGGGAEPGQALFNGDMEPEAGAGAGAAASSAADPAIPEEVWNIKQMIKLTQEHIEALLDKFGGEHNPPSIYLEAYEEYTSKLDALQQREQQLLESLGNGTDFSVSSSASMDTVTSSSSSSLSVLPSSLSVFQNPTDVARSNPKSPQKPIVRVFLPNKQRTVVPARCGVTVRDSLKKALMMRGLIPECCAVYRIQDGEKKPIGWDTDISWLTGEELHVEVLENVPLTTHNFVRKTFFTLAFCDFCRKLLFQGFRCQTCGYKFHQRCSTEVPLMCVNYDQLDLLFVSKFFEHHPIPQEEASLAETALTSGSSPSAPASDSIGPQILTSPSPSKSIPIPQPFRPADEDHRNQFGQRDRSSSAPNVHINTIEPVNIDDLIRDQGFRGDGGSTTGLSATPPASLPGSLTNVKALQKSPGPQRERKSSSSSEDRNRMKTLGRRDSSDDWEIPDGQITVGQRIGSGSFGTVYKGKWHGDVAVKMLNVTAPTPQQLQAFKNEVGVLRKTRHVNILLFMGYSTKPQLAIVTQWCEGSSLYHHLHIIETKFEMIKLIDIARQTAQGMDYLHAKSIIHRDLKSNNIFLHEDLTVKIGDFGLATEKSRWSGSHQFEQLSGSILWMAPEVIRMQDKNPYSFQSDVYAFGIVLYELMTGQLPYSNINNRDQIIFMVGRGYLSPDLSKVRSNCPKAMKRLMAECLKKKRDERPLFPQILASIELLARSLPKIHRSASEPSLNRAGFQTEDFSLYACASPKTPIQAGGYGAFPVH

Row | Structure (SMILES) | DC50 [1] [nM] | Dmax [2] [%] | DC50 (A375 (BRAF V600E, Class 1), DC50 at 50% degradation) [nM] | Dmax (A375 (BRAF V600E, Class 1), observed Dmax, % protein degraded relative to DMSO control) [%]
1 | CCCS(=O)(=O)Nc1cccc(-c2nc(C3CCN(C(=O)C4CCN(C(=O)CC5CCN(c6ccc(NC7CCC(=O)NC7=O)cc6)CC5)CC4)CC3)sc2-c2ccncn2)c1F (racemic) [Compound 184, Rac-N-(3-{2-[1-(1-{2-[1-(4-{[(3R)-2,6-dioxopiperidin-3-yl]amino}phenyl)piperidin-4-yl]acetyl}piperidine-4-carbonyl)piperidin-4-yl]-5-(pyrimidin-4-yl)-1,3-thiazol-4-yl}-2-fluorophenyl)propane-1-sulfonamide] | < 10 | > 70 |  | 
2 | CCCS(=O)(=O)Nc1cccc(-c2nc(C3CCN(C(=O)C4(C)CCN(C(=O)C5CCN(c6ccc(C7CCC(=O)NC7=O)cc6)CC5)CC4)CC3)sc2-c2ccncn2)c1F (racemic) [Compound 178, Rac-N-[3-(2-{1-[1-(1-{4-[(3R)-2,6-dioxopiperidin-3-yl]phenyl}piperidine-4-carbonyl)-4-methylpiperidine-4-carbonyl]piperidin-4-yl}-5-(pyrimidin-4-yl)-1,3-thiazol-4-yl)-2-fluorophenyl]propane-1-sulfonamide] | < 10 | > 70 |  | 
3 | CCCS(=O)(=O)Nc1cccc(-c2nc(C(C)(C)C)sc2-c2ccnc(Nc3ccc(C4CCN(C(=O)C5CCN(c6cccc7c6n(C)c(=O)n7C6CCC(=O)NC6=O)CC5)CC4)cc3)n2)c1F (racemic) [Compound 161, Rac-N-(3-{2-tert-butyl-5-[2-({4-[1-(1-{1-[(3R)-2,6-dioxopiperidin-3-yl]-3-methyl-2-oxo-2,3-dihydro-1H-1,3-benzodiazol-4-yl}piperidine-4-carbonyl)piperidin-4-yl]phenyl}amino)pyrimidin-4-yl]-1,3-thiazol-4-yl}-2-fluorophenyl)propane-1-sulfonamide] | 10 to 50 | 30 to 70 |  | 
4 | CCCS(=O)(=O)Nc1cccc(-c2nc(C(C)(C)C)sc2-c2ccnc(NCC3CCN(CC4CCN(c5ccc([C@H]6CCC(=O)NC6=O)cc5)CC4)CC3)n2)c1F [Compound 145, N-[3-(2-tert-butyl-5-{2-[({1-[(1-{4-[(3R)-2,6-dioxopiperidin-3-yl]phenyl}piperidin-4-yl)methyl]piperidin-4-yl}methyl)amino]pyrimidin-4-yl}-1,3-thiazol-4-yl)-2-fluorophenyl]propane-1-sulfonamide] | > 500 | 30 to 70 |  | 
5 | CCCS(=O)(=O)Nc1cccc(-c2nc(C3CCN(Cc4ccc(C(=O)N[C@@H]5CCC(=O)NC5=O)cc4)CC3)sc2-c2ccnc(N)n2)c1F [Compound 255, 4-({4-[5-(2-aminopyrimidin-4-yl)-4-[2-fluoro-3-(propane-1-sulfonamido)phenyl]-1,3-thiazol-2-yl]piperidin-1-yl}methyl)-N-[(3R)-2,6-dioxopiperidin-3-yl]benzamide] |  |  | > 500 | < 30
6 | CCCS(=O)(=O)Nc1cccc(-c2nc(C(C)(C)C)sc2-c2ccnc(Nc3ccc4c(c3)CCN(C(=O)[C@@H]3CCN(c5ccc(C6CCC(=O)NC6=O)cn5)C3)C4)n2)c1F (mixture of isomers) [Compound 121, N-(3-{2-tert-butyl-5-[2-({2-[(3R)-1-{5-[(3RS)-2,6-dioxopiperidin-3-yl]pyridin-2-yl}pyrrolidine-3-carbonyl]-1,2,3,4-tetrahydroisoquinolin-6-yl}amino)pyrimidin-4-yl]-1,3-thiazol-4-yl}-2-fluorophenyl)propane-1-sulfonamide] | 50 to 500 | 30 to 70 |  | 
7 | CCCS(=O)(=O)Nc1cccc(-c2nc(C3CCN(CC4CCN(C(=O)C5CCN(c6ccc(C7CCC(=O)NC7=O)cn6)CC5)CC4)CC3)sc2-c2ccnc(N)n2)c1F (racemic) [Compound 213, Rac-N-{3-[5-(2-aminopyrimidin-4-yl)-2-(1-{[1-(1-{5-[(3R)-2,6-dioxopiperidin-3-yl]pyridin-2-yl}piperidine-4-carbonyl)piperidin-4-yl]methyl}piperidin-4-yl)-1,3-thiazol-4-yl]-2-fluorophenyl}propane-1-sulfonamide] | < 10 | > 70 |  | 
8 | CCCS(=O)(=O)Nc1cccc(-c2nc(C)sc2-c2ccnc(Nc3ccc(C4CCN(C(=O)C5CCN(c6ccc(C7CCC(=O)NC7=O)cn6)CC5)CC4)cc3)n2)c1F (racemic) [Compound 55, Rac-N-(3-{5-[2-({4-[1-(1-{5-[(3R)-2,6-dioxopiperidin-3-yl]pyridin-2-yl}piperidine-4-carbonyl)piperidin-4-yl]phenyl}amino)pyrimidin-4-yl]-2-methyl-1,3-thiazol-4-yl}-2-fluorophenyl)propane-1-sulfonamide] | 10 to 50 | > 70 |  | 
9 | CCCS(=O)(=O)Nc1cccc(-c2nc(C(C)(C)C)sc2-c2ccnc(Nc3cnn(C4CCN(C(=O)C5CCN(c6ccc(C(=O)NC7CCC(=O)NC7=O)nc6)CC5)CC4)c3)n2)c1F (racemic) [Compound 107, Rac-5-[4-(4-{4-[(4-{2-tert-butyl-4-[2-fluoro-3-(propane-1-sulfonamido)phenyl]-1,3-thiazol-5-yl}pyrimidin-2-yl)amino]-1H-pyrazol-1-yl}piperidine-1-carbonyl)piperidin-1-yl]-N-[(3R)-2,6-dioxopiperidin-3-yl]pyridine-2-carboxamide] | 10 to 50 | 30 to 70 |  | 
10 | CCCS(=O)(=O)Nc1cccc(-c2nc(-c3ccc(N4CCN(C(=O)C5CCN(c6ccc(C7CCC(=O)NC7=O)cc6)CC5)CC4)cc3)sc2-c2ccnc(N)n2)c1F (racemic) [Compound 190, Rac-N-{3-[5-(2-aminopyrimidin-4-yl)-2-{4-[4-(1-{4-[(3R)-2,6-dioxopiperidin-3-yl]phenyl}piperidine-4-carbonyl)piperazin-1-yl]phenyl}-1,3-thiazol-4-yl]-2-fluorophenyl}propane-1-sulfonamide] | 10 to 50 | 30 to 70 |  | 
11 | CCCS(=O)(=O)Nc1cccc(-c2nc(C3CCN(C(=O)CN4CCN(c5ccc6c(c5)C(=O)N(C5CCC(=O)NC5=O)C6=O)CC4)CC3)sc2-c2ccnc(N)n2)c1F (racemic) [Compound 233, Rac-N-{3-[5-(2-aminopyrimidin-4-yl)-2-{1-[2-(4-{2-[(3R)-2,6-dioxopiperidin-3-yl]-1,3-dioxo-2,3-dihydro-1H-isoindol-5-yl}piperazin-1-yl)acetyl]piperidin-4-yl}-1,3-thiazol-4-yl]-2-fluorophenyl}propane-1-sulfonamide] | 10 to 50 | 30 to 70 |  | 
12 | CCCS(=O)(=O)Nc1cccc(-c2nc(C(C)(C)C)sc2-c2ccnc(Nc3cccc(OC4CCN(C(=O)C5CCN(c6ccc(C(=O)NC7CCC(=O)NC7=O)nc6)CC5)CC4)c3)n2)c1F (racemic) [Compound 95, Rac-5-[4-(4-{3-[(4-{2-tert-butyl-4-[2-fluoro-3-(propane-1-sulfonamido)phenyl]-1,3-thiazol-5-yl}pyrimidin-2-yl)amino]phenoxy}piperidine-1-carbonyl)piperidin-1-yl]-N-[(3R)-2,6-dioxopiperidin-3-yl]pyridine-2-carboxamide] | 10 to 50 | 30 to 70 |  | 
13 | CCCS(=O)(=O)Nc1cccc(-c2nc(C(C)(C)C)sc2-c2ccnc(Nc3cnn(CC4CCN(C(=O)C5CCN(c6ccc(C(=O)NC7CCC(=O)NC7=O)nc6)CC5)CC4)c3)n2)c1F (racemic) [Compound 115, Rac-5-{4-[4-({4-[(4-{2-tert-butyl-4-[2-fluoro-3-(propane-1-sulfonamido)phenyl]-1,3-thiazol-5-yl}pyrimidin-2-yl)amino]-1H-pyrazol-1-yl}methyl)piperidine-1-carbonyl]piperidin-1-yl}-N-[(3R)-2,6-dioxopiperidin-3-yl]pyridine-2-carboxamide] | 50 to 500 | 30 to 70 |  | 
14 | CCCS(=O)(=O)Nc1cccc(-c2nc(C(C)(C)C)sc2-c2ccnc(Nc3cnn(C4CCN(CC[C@@H]5CCN(c6ccc(C7CCC(=O)NC7=O)cn6)C5)CC4)c3)n2)c1F (mixture of isomers) [Compound 78, N-{3-[2-tert-butyl-5-(2-{[1-(1-{2-[(3R)-1-{5-[(3RS)-2,6-dioxopiperidin-3-yl]pyridin-2-yl}pyrrolidin-3-yl]ethyl}piperidin-4-yl)-1H-pyrazol-4-yl]amino}pyrimidin-4-yl)-1,3-thiazol-4-yl]-2-fluorophenyl}propane-1-sulfonamide] | 10 to 50 | > 70 |  | 
15 | CCCS(=O)(=O)Nc1cccc(-c2nc(C(C)(C)C)sc2-c2ccnc(NC3CC4(C3)CN(C(=O)CCCCCc3ccc5c(c3)C(=O)N(C3CCC(=O)NC3=O)C5)C4)n2)c1F (racemic) [Compound 150, Rac-N-{3-[2-tert-butyl-5-(2-{[2-(6-{2-[(3R)-2,6-dioxopiperidin-3-yl]-3-oxo-2,3-dihydro-1H-isoindol-5-yl}hexanoyl)-2-azaspiro[3.3]heptan-6-yl]amino}pyrimidin-4-yl)-1,3-thiazol-4-yl]-2-fluorophenyl}propane-1-sulfonamide] | 50 to 500 | 30 to 70 |  | 
16 | CCCS(=O)(=O)Nc1cccc(-c2nc(C(C)(C)C)sc2-c2ccnc(Nc3ccc(C4CCN(C(=O)COc5ccc6c(c5)C(=O)N(C5CCC(=O)NC5=O)C6=O)CC4)cc3)n2)c1F (racemic) [Compound 176, Rac-N-[3-(2-tert-butyl-5-{2-[(4-{1-[2-({2-[(3R)-2,6-dioxopiperidin-3-yl]-1,3-dioxo-2,3-dihydro-1H-isoindol-5-yl}oxy)acetyl]piperidin-4-yl}phenyl)amino]pyrimidin-4-yl}-1,3-thiazol-4-yl)-2-fluorophenyl]propane-1-sulfonamide] | 10 to 50 | 30 to 70 |  | 

From patent US20260317324A1, “BIFUNCTIONAL COMPOUNDS FOR DEGRADING BRAF VIA UBIQUITIN PROTEOSOME PATHWAY” (Nurix Therapeutics, Inc., priority 2023, published 2026)
